This note sets out measurements from PubChem BioAssay AID1996.

Each structure is given as a SMILES string. Converted amounts (≈) assume the structure as drawn.

For this data set the following is noted: buffer; pH 7.4; 200.0 µM.
As to `Cc1nc2ccccn2c1C(=O)CSc1ccccc1`, the kinetic solubility (in general, solubility judged after dilution from a stock solution rather than from solid) is above 42.4 µg/mL.

`O=[N+]([O-])c1cc(Cl)ccc1NCCc1ccccn1` showed a kinetic solubility of 28.7 µg/mL (≈ 103 µM).

On to `O=C(Cn1c(C(=O)O)cc2ccccc21)c1ccccc1`, for which the kinetic solubility came to 39.2 µg/mL (≈ 140 µM).

In turn, `CCOC(=O)c1csc(-c2sccc2Br)n1` showed a kinetic solubility of 18.7 µg/mL (≈ 58.8 µM).

`COc1ccc(C(=O)N2CCCc3ccccc32)cc1OC` had a solubility (kinetic) of 32.4 µg/mL (≈ 109 µM).

`CC(C)N(Cc1ccccc1)C(=S)NC1CCCCC1`: the kinetic solubility is 13.1 µg/mL (≈ 45.1 µM).

`CC1CC(C)CN(C(=O)C(C)N(C)CC(=O)Nc2ccccc2Cl)C1` (stereo unspecified) came in with a solubility (kinetic) above 54.9 µg/mL.

The compound `CSc1ncccc1C(=O)OCC(=O)NC(C)(C)C` came in with a solubility (kinetic) above 42.4 µg/mL.

Consider `N#CCC(=O)Nc1ccc(C(=O)Nc2cccnc2)cc1`, for which the solubility (kinetic) is above 42 µg/mL.

Compound `CCCN(CC(=O)Nc1ccccc1OC)C(=O)c1ccccn1` displayed a solubility (kinetic) above 49.1 µg/mL.

Take `CC(=O)c1sc(NC(=O)Cc2c(F)cccc2Cl)nc1C`: the kinetic solubility is 8.2 µg/mL (≈ 25.1 µM).

For `O=C(O)c1ccccc1C(=O)NCCc1ccc(Cl)cc1`, the kinetic solubility worked out at 43.3 µg/mL (≈ 143 µM).

Compound `OCCNc1nc(Cl)nc(NCc2ccco2)n1` gave a kinetic solubility above 40.5 µg/mL.

`NC(=O)c1c(NC(=O)c2ccccc2)sc2c1CCCC2` came in with a kinetic solubility of 0.8 µg/mL (≈ 2.66 µM).

`CCCc1nc2oc3c(NCC(C)O)ncnc3c2c2c1CCCC2` (stereo unspecified) showed a kinetic solubility of 0.4 µg/mL (≈ 1.17 µM).

In the case of `CN(C)c1ccc(CNCc2cccnc2)cc1`, the solubility (kinetic) came out at 33.3 µg/mL (≈ 138 µM).

`Cc1ccc(NC(=O)c2ccc(CSc3ccccn3)cc2)c(O)c1` came in with a kinetic solubility of 1 µg/mL (≈ 2.85 µM).

The compound `C=CCOc1ccccc1CN1CCCN(C)CC1` showed a solubility (kinetic) of 27.8 µg/mL (≈ 107 µM).

For the compound `O=C(CCC(=O)NCc1ccccc1)NCc1ccccc1`, the solubility (kinetic) worked out at 12.7 µg/mL (≈ 42.9 µM).

Regarding `Cc1ccc(NC(=O)CN2C(=O)NC3(CCCC3)C2=O)c(Cl)c1`, the solubility (kinetic) was above 50.4 µg/mL.

With `O=C(O)C1CC(c2ccccc2)=Nc2ccccc2S1` (stereo unspecified), the kinetic solubility was 9.8 µg/mL (≈ 34.6 µM).

On to `CC(=O)SCC[N+](C)(C)C.[Cl-]`, for which the solubility (kinetic) amounted to 29.4 µg/mL.

The compound `Cc1ccc(CNC(=O)COC(=O)COc2ccc(C#N)cc2)cc1` returned a solubility (kinetic) above 50.8 µg/mL.

`Cc1ccc(/C=C/C(=O)O)cc1S(=O)(=O)NCc1cccnc1` yielded a kinetic solubility of 46.9 µg/mL (≈ 141 µM).

In turn, `COc1ccc(S(=O)(=O)N[C@@H](CSCc2ccccc2)C(=O)O)cc1` registered a solubility (kinetic) above 57.2 µg/mL.

With `Cc1cc2oc(=O)cc(CN3CCOCC3)c2cc1C(C)C`, the solubility (kinetic) is 3.4 µg/mL (≈ 11.3 µM).

`CC(=O)Nc1csc2ccccc12` displayed a kinetic solubility above 28.7 µg/mL.

In the case of `CCOCCCNc1c(CC)c(C)c(C#N)c2nc3ccccc3n12`, the kinetic solubility came out at 6.5 µg/mL (≈ 19.3 µM).

Turning to `Cc1ccc(OCC(=O)NC(=S)Nc2ccc(Br)cn2)cc1`, the kinetic solubility stood at 0.5 µg/mL (≈ 1.31 µM).

In turn, `COc1ccc(C(=O)NCc2ccc(C(=O)O)o2)cc1` gave a kinetic solubility above 41.3 µg/mL.

Turning to `Cc1cc(C(=O)CCl)c(C)n1Cc1ccco1`, the solubility (kinetic) was above 37.8 µg/mL.

In the case of `CC1(C)CC(NC(=O)Nc2ccc([N+](=O)[O-])cc2)CC(C)(C)N1`, the kinetic solubility is above 48.1 µg/mL.

Regarding `O=c1oc2cc(Br)ccc2n1Cc1ccccc1`, the solubility (kinetic) is below 0.7 µg/mL.

`O=C(COC(=O)COc1ccccc1)Nc1ccc(Cl)cn1` showed a kinetic solubility of 13.3 µg/mL (≈ 41.5 µM).

`CCCn1c(=N)n(CC(O)c2ccc(C)cc2)c2ccccc21.Cl` (stereo unspecified) showed a kinetic solubility above 51.9 µg/mL.

With `O=C(NNC(=O)c1ccc2nc[nH]c2c1)c1ccccc1`, the solubility (kinetic) is above 42 µg/mL.

With `CSc1ccc(C(=O)NCC(=O)O)cc1[N+](=O)[O-]`, the kinetic solubility is above 40.5 µg/mL.

The compound `COc1ccc(NC(=O)CSc2nc3ccc(OC)cc3[nH]2)cc1` gave a kinetic solubility of 6 µg/mL (≈ 17.5 µM).

In the case of `O=C(CN1C(=O)NC2(CCCC2)C1=O)NCc1cccc(Cl)c1`, the kinetic solubility was 42.4 µg/mL (≈ 126 µM).

Turning to `CCOc1ccc(C2NC(=O)c3ccccc3O2)cc1OC` (stereo unspecified), the kinetic solubility turned out to be 3.3 µg/mL (≈ 11 µM).

The compound `COc1cc(C)c(S(=O)(=O)NOCc2ccccc2)c(C)c1C` had a solubility (kinetic) of 5.5 µg/mL (≈ 16.4 µM).

For `N#Cc1c(-c2ccc(Cl)cc2)ccnc1N1CCOCC1`, the solubility (kinetic) came out at 3 µg/mL (≈ 10 µM).

As for `Cc1cc(C)cc(NC(=O)c2cccc(N3C(=O)C4C5C=CC(C5)C4C3=O)c2)c1` (stereo unspecified), the solubility (kinetic) is below 0.4 µg/mL.

For the compound `COc1c(-c2ccc([N+](=O)[O-])cc2[N+](=O)[O-])c(=O)n(C)c(=O)n1C`, the kinetic solubility was above 50.4 µg/mL.

With `Cc1ccc(O)c(Nc2ncnc3ccc([N+](=O)[O-])cc23)c1.Cl`, the kinetic solubility was determined as 9.6 µg/mL.

For `Cc1ccc(CONC(=O)c2ccccc2)cc1`, the solubility (kinetic) is above 36.2 µg/mL.

The compound `Cc1ccc(C(=O)C2CCN(C(=S)NCC3CCCO3)CC2)cc1` (stereo unspecified) displayed a kinetic solubility of 46.7 µg/mL (≈ 135 µM).

The compound `Cc1cccc(/C=C(\C#N)C(=O)Nc2ccccn2)c1` displayed a kinetic solubility of 33.3 µg/mL (≈ 126 µM).

Regarding `O=C(/C=C/c1cccc(C(F)(F)F)c1)OCC(=O)N1CCN(c2ccccc2)CC1`, the solubility (kinetic) amounted to 3.7 µg/mL (≈ 8.84 µM).

For the compound `CCNC(=O)COc1cc(C)c(Br)c(C)c1`, the solubility (kinetic) was above 42.9 µg/mL.

In the case of `CCc1noc(N)c1C(=O)Nc1ccc(Cl)cc1`, the solubility (kinetic) is above 39.9 µg/mL.
